Results on one compound are retold here after US10085973B2, “Pharmaceutical composition containing a compound having a thrombopoietin receptor agonistic activity” (Shionogi & Co., Ltd., priority 2012, dated 2018).

In brackets after ≈: the same amount, converted by molar mass.

In one data set the test system is platelet count. Briefly: Estimated PD model parameters for chronic liver disease patients (for Monte-Carlo simulation). Also on record: species or system human. The source says:
Based on the PK/PD model in healthy adults as described in (Test Example 1), model parameters in chronic liver disease patients were estimated on the basis of the following assumptions.
Based on the pre-defined level of platelet count expected in chronic liver disease patients, the average and range of PLT0 were set to 3×10^4/μL and 2×10^4 to 4.9×10^4/μL, respectively.
It was reported that platelets destruction in chronic liver disease patients was promoted (see Reference 1) and the survival period of platelets was about ⅔ of that of healthy adults (see References 2 and 3). Therefore, kdeg, a parameter representing the elimination rate of platelets, was set to the value which was about 1.5 times of the value of healthy adults, i.e. 0.009 hr^−1. In addition, based on the relationship that the production rate of platelets is equal to the elimination rate of platelets at baseline, kpr, a parameter representing the production rate of platelets, was calculated from the formula: PLT0×kdeg. As a result, kpr was 0.027×10^4/μL/hr which was lower than the value in healthy adults (0.116×10^4/μL/hr). This estimated value matched the previous report that the production rate of platelets was decreased in chronic liver disease patients (see Reference 1).
It was assumed that a parameter km representing the maturation rate of platelets in chronic liver disease patients is similar to that in healthy adults. Therefore, the estimated value in healthy adults was used as km.
When the plasma concentration is sufficiently lower than EC50 (EC50>>C), the drug efficacy of lusutrombopag can be approximated by Emax/EC50. It was assumed based on the clinical data of eltrombopag, a drug having the same efficacy (see References 4 and 5) that Emax/EC50 in this trial was about 3 times of the value of healthy adults. […] Meanwhile, it was assumed that r in the patients was similar to that in healthy adults. Therefore, the value in healthy adults was used as r.
A reduction in the production rate of platelets with an increase in platelets, i.e. the negative feedback phenomenon, is represented by the formula (PLT0/PLT)^γ. […] Therefore, the negative feedback phenomenon was not taken into account in the present simulation.
As inter-individual variability of the respective PD parameters, the values in healthy adults were used.
The intra-individual variability of plasma concentration was not taken into account in the present simulation. As the intra-individual variability of a platelet count, the value in healthy adults was used.

The test system of data set [1] is patients with thrombocytopenia caused by chronic liver disease. Briefly: Example 2 Test Example 2: placebo-controlled repeated oral administration before percutaneous liver ablation with discontinuation criteria. The data set is classed as in vivo, human. The source says:
To patients with thrombocytopenia caused by chronic liver disease, lusutrombopag as a pretreatment of percutaneous liver ablation was orally administered repeatedly for 7 days while applying the discontinuation criteria designed in Example 1 and profile of the platelet count was studied. In the present Example, the term “ablation” refers to radiofrequency ablation.
Patients with thrombocytopenia caused by chronic liver disease who are scheduled to undergo percutaneous liver ablation.
Patients who meet the following inclusion criteria are included. • 1) Age: 20 years of age or older (at the time of consent); • 2) Patients who themselves can give a consent in writing; • 3) Patients with thrombocytopenia caused by chronic liver disease; • 4) Patients who are scheduled to undergo percutaneous liver ablation for primary liver cancer; • 5) Patients having a platelet count which is less than 5×10^4/μL at the time of screening; • 6) Patients whose ECOG* Performance Status of Grade is 0 to 1; and • 7) Patients who can practice contraception from entry to the end of observation. (Exclusion Criteria)
Patients who meet the following criteria are excluded. • 1) Patients who underwent splenectomy; • 2) Patients who have a complication presenting thrombocytopenia; • 3) Patients who underwent liver transplant; • 4) Degree of hepatic disorder classified as the Child-Pugh class of C; • 5) Hepatic encephalopathy uncontrolled by medicaments; • 6) Ascites uncontrolled by medicaments; • 7) Patients who have a complication of malignant tumor other than primary liver cancer; • 8) Patients who have a complication or a history of thrombosis or thrombotic disease; • 9) Patients who have absence of hepatopetal blood flow in the portal vein; • 10) Patients who have a complication or a history of disease with hemorrhage risk; • 11) Patients who received a therapeutic agent that affects a platelet count or underwent a therapy that affects a platelet count within 90 days before registry; • 12) Patients who received a blood product (excluding erythrocyte product) within 14 days before registry; or • 13) Patients who previously received a TPO receptor agonist. (Drugs which are Prohibited, Limited or Allowed for Coadministration During the Trial)
In each allocated group, lusutrombopag is orally administered repeatedly once daily for 7 days. After patients are monitored on day 8, they undergo percutaneous liver ablation before day 14 from initiation of administration. They are monitored until about day 30 after initiation of administration.
Lusutrombopag is orally administered repeatedly once daily for 7 days. On day 1, the drug is administered at the time of visit. On day 5 to day 7, the drug shall be administered after checking the platelet count measured on the same day. Administration of lusutrombopag shall be discontinued when the platelet count reaches to the following criteria (administration discontinuating criteria) in a clinical examination after administration of the investigational drug.
Administration discontinuating criteria: when the platelet count has increased by 2×10^4/μL or more from the platelet count before initiation of administration and the platelet count has reached to 5×10^4/μL or higher.
As the platelet count before initiation of administration, the platelet count determined within 7 days before initiation of administration was used.
Daily dose was any one of 2.0, 3.0 and 4.0 mg of lusutrombopag.
Proportion of patients who have a platelet count on day 8 after initiation of administration that increased by 2×10^4/μL or more from a platelet count before initiation of administration and reached to 5×10^4/μL or higher. […]

On to `CCCCCCO[C@@H](C)c1cccc(-c2csc(NC(=O)c3cc(Cl)c(/C=C(\C)C(=O)O)c(Cl)c3)n2)c1OC` [lusutrombopag, (E)-3-[2,6-dichloro-4-[4-[3-[(S)-1-hexyloxyethyl]-2-methoxyphenyl]-thiazol-2-ylcarbamoyl]-phenyl]-2-methylacrylic acid], for which the “kdeg, mean” value with platelet count (about 1.5 times of healthy adults) is 2.5e-06 s⁻¹. For the same compound, in the data set on platelet count (set by assumption), the “EC50, mean” value is 0.18 µg/mL (≈ 0.304 µM) and the “Emax, mean” value is recorded as 29.3. For the same compound, in the data set with platelet count (value of healthy adults), the “km, mean” value is 0.0394 h⁻¹ and the “r, mean” value is 2.03. For the same compound, in data set [1] (2.0 mg once daily, n = 15), the “Endpoint 2: Number of patients who had a platelet count during the trial that increased by 2 × 10^4/μL or more from the count before initiation of administration and reached to 5 × 10^4/μL or higher” value was 10; the “Number of patients to whom administration was discontinued according to the administration discontinuating criteria” value amounted to 3; the “Number of patients who received platelet transfusion” value is given as 3. In data set [1] (3.0 mg once daily, n = 16), the “Endpoint 2: Number of patients who had a platelet count during the trial that increased by 2 × 10^4/μL or more from the count before initiation of administration and reached to 5 × 10^4/μL or higher” value stood at 11; the “Number of patients to whom administration was discontinued according to the administration discontinuating criteria” value amounted to 3; the “Number of patients who received platelet transfusion” value worked out at 3. In data set [1] (4.0 mg once daily, n = 15), the “Endpoint 2: Number of patients who had a platelet count during the trial that increased by 2 × 10^4/μL or more from the count before initiation of administration and reached to 5 × 10^4/μL or higher” value stood at 12; the “Number of patients to whom administration was discontinued according to the administration discontinuating criteria” value is listed as 5; the “Number of patients who received platelet transfusion” value was 4. The “efficacy at each dose” value in data set [1] (all doses (2.0, 3.0 and 4.0 mg)) is “all doses showed the efficacy”. For the same compound, in data set [1] (daily dose 2.0, 3.0 and 4.0 mg), the “patients who had a platelet count of higher than 20×10^4/μL during the observation period” value is given as “None”.
